In patent publication US5006546A, “Imidazole derivatives” (Rhone-Poulenc Sante, priority 1989, dated 1991):

Target: T1, acyl coenzyme-A:cholesterol-O-acyl transferase (ACAT; EC 2.3.1.26) (Rattus norvegicus, UniProt Q7TQM4)
T1 construct: microsomes obtained from the livers of rats; from tissue; host or cells: liver microsomes of rats fed 0.5% w/w cholesterol and 0.25% w/w cholic acid
T1 sequence (Q7TQM4 1-524): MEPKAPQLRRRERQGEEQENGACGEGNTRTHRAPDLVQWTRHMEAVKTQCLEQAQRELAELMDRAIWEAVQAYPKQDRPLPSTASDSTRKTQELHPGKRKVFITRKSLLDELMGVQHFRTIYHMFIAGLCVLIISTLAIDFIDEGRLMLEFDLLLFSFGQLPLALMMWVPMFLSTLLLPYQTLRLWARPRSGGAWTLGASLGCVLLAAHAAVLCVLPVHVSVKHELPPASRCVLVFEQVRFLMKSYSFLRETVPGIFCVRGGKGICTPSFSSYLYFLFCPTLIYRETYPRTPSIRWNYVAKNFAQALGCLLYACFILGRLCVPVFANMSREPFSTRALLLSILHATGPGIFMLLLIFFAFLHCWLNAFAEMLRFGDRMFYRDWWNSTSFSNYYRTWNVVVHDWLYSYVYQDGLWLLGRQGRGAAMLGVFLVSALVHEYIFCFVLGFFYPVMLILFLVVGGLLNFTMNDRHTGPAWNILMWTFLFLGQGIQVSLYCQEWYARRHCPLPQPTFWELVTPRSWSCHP
Test: In vitro inhibition of acyl coenzyme-A:cholesterol-O-acyl transferase (ACAT) in liver microsomes of cholesterol/cholic acid-fed rats
Format: biochemical
Settings: microsomes from livers of rats fed a diet containing 0.5% w/w cholesterol and 0.25% w/w cholic acid

## CO[C@@H]1C[C@H](O)C[C@@H](CSc2nc(-c3ccccc3)c(-c3ccccc3)[nH]2)O1 [(I), (2S,4R,6S)-6-[(4,5-diphenylimidazol-2-yl)thiomethyl]-4-hydroxy-2-methoxy-3,4,5,6-tetrahydro-2H-pyran]
  IC50: 50 nM

## CO[C@H]1C[C@H](O)C[C@@H](CSc2nc(-c3ccccc3)c(-c3ccccc3)[nH]2)O1 [(II), (2R,4R,6S)-6-[(4,5-diphenylimidazol-2-yl)thiomethyl]-4-hydroxy-2-methoxy-3,4,5,6-tetrahydro-2H-pyran]
  IC50: 91 nM
